Assays:
Assay type in all cases: cell-based
T-47D cells = test: Inhibition of cell proliferation in T-47D cells (CCK-8, 6 days); conditions: 6 days of treatment, Table 3
Outline: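 Viability read-out was CCK-8 after 6 days of compound treatment (37 °C, 5% CO2) across graded concentrations. Cells were T-47D seeded at 3,000 per well in 1640 medium plus 10% FBS. IC50 was calculated against proliferation.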

ERα [1] = target: T1, ERα (Homo sapiens, UniProt P03372); test: Degradation of ERα in T-47D cells (immunoblotting, 4 h); set-up: host or cells: T-47D
T1 sequence (P03372 1-595): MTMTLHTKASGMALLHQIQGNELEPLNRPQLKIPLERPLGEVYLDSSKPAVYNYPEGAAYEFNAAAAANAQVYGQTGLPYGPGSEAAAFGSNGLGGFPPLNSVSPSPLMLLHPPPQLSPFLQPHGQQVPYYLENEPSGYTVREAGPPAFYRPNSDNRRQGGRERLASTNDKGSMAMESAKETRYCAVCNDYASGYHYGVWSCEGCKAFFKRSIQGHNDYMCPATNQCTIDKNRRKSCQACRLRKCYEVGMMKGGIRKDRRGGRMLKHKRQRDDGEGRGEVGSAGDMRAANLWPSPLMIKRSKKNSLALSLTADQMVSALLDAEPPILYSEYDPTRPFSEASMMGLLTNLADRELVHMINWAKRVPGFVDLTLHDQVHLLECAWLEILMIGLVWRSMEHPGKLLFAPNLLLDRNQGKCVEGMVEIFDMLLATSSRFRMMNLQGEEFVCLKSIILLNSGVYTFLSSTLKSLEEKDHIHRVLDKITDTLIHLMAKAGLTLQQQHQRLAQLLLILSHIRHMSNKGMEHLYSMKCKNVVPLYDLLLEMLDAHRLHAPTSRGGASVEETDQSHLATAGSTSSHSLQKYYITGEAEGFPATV
Outline: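 ERα protein levels were assessed by immunoblot of RIPA lysates (with protease inhibitor) after 4 h exposure at 37°C. Compound was added in DMSO to T-47D cells at final concentrations of 0.15-1000 nM.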

ERα [2] = target: T1, ERα; test: Degradation of ERα in MCF-7 cells (immunoblotting, 4 h)
Outline: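 Degradation rate reflects ERα band intensity, corrected to an internal reference protein, relative to control. Values come from Western blotting of lysates from MCF-7 cells exposed 4 h at 37°C to compounds at final concentrations of 0.15-1000nM.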

MCF-7 cells = test: Inhibition of cell proliferation of MCF-7 cells (CCK-8, 9 days); conditions: treated for 9 days, CCK-8 kit (Table 6)
Outline: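 Read-out was CCK-8 viability after 9-day continuous exposure (37°C, 5% CO2) of MCF-7 cells plated at 800/well in 10% FBS DMEM across several compound concentrations. Values are proliferation IC50s.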

Compound | IC50 (T-47D cells) | Degradation rate (%) of ERα in T-47D cells (ERα [1]; 1nM compound) | Degradation rate (%) of ERα in T-47D cells (ERα [1]; 10nM compound) | Degradation rate (%) of ERα in MCF-7 cells (ERα [2]; 1nM compound) | Degradation rate (%) of ERα in MCF-7 cells (ERα [2]; 10nM compound) | IC50 (MCF-7 cells)
O=C1CCC(N2Cc3c(ccc4c3OCC43CCN(CC(=O)N4CCC5(CCN(c6ccc([C@@H]7c8ccc(O)cc8CC[C@@H]7c7ccccc7)cc6)C5)C4)CC3)C2=O)C(=O)N1 (stereo partly drawn) [H19] | 1.8 nM | 39% | 55% | 27% | 21% | 151 nM
O=C1CCC(N2Cc3c(ccc4c3OCC43CCN([C@H]4CCN(C5CC6(CCN(c7ccc([C@@H]8c9ccc(O)cc9CC[C@@H]8c8ccccc8)cc7)CC6)C5)C[C@H]4F)CC3)C2=O)C(=O)N1 (stereo partly drawn) [H36] | 1.06 nM | 21% | 75% | 24% | 70% | 72.4 nM
O=C1CCC(N2Cc3c(ccc4c3OCC43CCN(C(=O)CC4CCN(c5ccc([C@@H]6c7ccc(O)cc7CC[C@@H]6c6ccccc6)cc5)CC4)CC3)C2=O)C(=O)N1 (stereo partly drawn) [H16] | 5.7 nM | 48% | 69% | 9% | 37% | 9770 nM
O=C1CCC(N2Cc3c(ccc4c3OCC43CCN(C(=O)CN4CC5(CCN(c6ccc([C@@H]7c8ccc(O)cc8CC[C@@H]7c7ccccc7)cc6)CC5)C4)CC3)C2=O)C(=O)N1 (stereo partly drawn) [K8] | 2.07 nM | 67% | 85% | 44% | 64% | 10.5 nM
O=C1CCC(N2Cc3c(ccc4c3OC3(CC4)CCN(C4CCN(C5CN(c6ccc([C@@H]7c8ccc(O)cc8CC[C@@H]7c7ccccc7)cc6)C5)CC4)CC3)C2=O)C(=O)N1 (stereo partly drawn) [A60] | 18.3 nM | 11% | -1% | -31% | -14% | 825 nM
O=C1CCC(N2Cc3c(ccc4c3OCC43CCN(C4CCC(Oc5ccc([C@@H]6c7ccc(O)cc7CC[C@@H]6c6ccccc6)cc5)CC4)CC3)C2=O)C(=O)N1 (stereo partly drawn) [H12] | 15.9 nM | -1% | 11% | 4% | 28% | 35.5 nM
O=C1CCC(N2Cc3c(ccc4c3OCC43CCN(C(=O)C4CCN(c5ccc([C@@H]6c7ccc(O)cc7CC[C@@H]6c6ccccc6)cc5)CC4)CC3)C2=O)C(=O)N1 (stereo partly drawn) [A52] | 10.9 nM | 3% | 2% | -22% | -33% | 5680 nM
C[C@H]1CN(C(=O)C2(F)CCN(c3ccc([C@@H]4c5ccc(O)cc5CC[C@@H]4c4ccccc4)cc3)CC2)CCC1N1CCC2(CC1)COc1c2ccc2c1CN(C1CCC(=O)NC1=O)C2=O (stereo partly drawn) [A97] | 2.33 nM | 45% | 78% | 50% | 75% | 217 nM
O=C1CCC(N2Cc3cc4c(cc3C2=O)CCC2(CN(C(=O)C3CC5(CCN(c6ccc([C@@H]7c8ccc(O)cc8CC[C@@H]7c7ccccc7)cc6)CC5)C3)C2)O4)C(=O)N1 (stereo partly drawn) [A48] | 12.3 nM | -37% | 23% | 4% | 11% | 7440 nM
CC(C)(C(=O)N1CCC2(CC1)COc1c2ccc2c1CN(C1CCC(=O)NC1=O)C2=O)N1CCC2(CCN(c3ccc([C@@H]4c5ccc(O)cc5CC[C@@H]4c4ccccc4)cc3)CC2)C1 (stereo partly drawn) [A91] | 1.11 nM | -1% | 49% | 2% | 33% | 325 nM
O=C1CCC(N2Cc3ccc4c(c3C2=O)OCC42CCN(C(=O)CN3CCC4(CCN(c5ccc([C@@H]6c7ccc(O)cc7CC[C@@H]6c6ccccc6)cc5)CC4)C3)CC2)C(=O)N1 (stereo partly drawn) [A92] | 1.34 nM | 48% | 66% | 36% | 66% | 11.6 nM
O=C1CCC(N2Cc3c(ccc4c3OCC43CCN(C4CCN(C5CN(c6ccc([C@@H]7c8ccc(O)cc8CC[C@@H]7c7ccccc7)cc6)C5)CC4)CC3)C2=O)C(=O)N1 (stereo partly drawn) [A61] | 27 nM | 9% | -2% | -4% | -19% | 837 nM
O=C1CCC(N2Cc3c(ccc4c3OCC43CCN(C4CCN(C(=O)C5(F)CCN(c6ccc([C@@H]7c8ccc(O)cc8CC[C@@H]7c7ccccc7)cc6)CC5)CC4)CC3)C2=O)C(=O)N1 (stereo partly drawn) [A89] | 2.16 nM | 40% | 70% | 48% | 72% | 110 nM
C[C@@H]1Cc2c(ccc3[nH]ncc23)C(c2ccc(N3CCC(C(=O)N4CCC(N5CCC6(CC5)COc5c6ccc6c5CN(C5CCC(=O)NC5=O)C6=O)CC4)CC3)cn2)N1CC(F)(F)F (stereo partly drawn) [B42] | 2460 nM | 3% | 13% | 17% | 26% | 90900 nM
O=C1CCC(N2Cc3c(ccc4c3OCC43CCN(C(=O)CC4CCN(C(=O)C5CCN(c6ccc([C@@H]7c8ccc(O)cc8CC[C@@H]7c7ccccc7)cc6)CC5)CC4)CC3)C2=O)C(=O)N1 (stereo partly drawn) [A123] | 1.34 nM | 66% | 84% | 29% | 61% | 164 nM
O=C1CCC(N2C(=O)c3cc4c(cc3C2=O)C2(CCN(CC3CCC5(CC3)CCN(c3ccc([C@@H]6c7ccc(O)cc7CC[C@@H]6c6ccccc6)cc3)CC5)CC2)CO4)C(=O)N1 (stereo partly drawn) [A36] | 21 nM | 2% | -23% | 11% | -14% | 270 nM
O=C1CCC(N2Cc3c(ccc4c3OCC43CCN(C(=O)CN(CC4CC4)CC4CCN(c5ccc([C@@H]6c7ccc(O)cc7CC[C@@H]6c6ccccc6)cc5)CC4)CC3)C2=O)C(=O)N1 (stereo partly drawn) [J16] | 1.58 nM | 35% | 68% | 17% | 47% | 2250 nM

Source: patent publication EP4656642A1, “ESTROGEN RECEPTOR PROTEOLYSIS TARGETING CHIMERA COMPOUND AND USE THEREOF” (GAN & LEE PHARM CO., LTD, priority 2023, dated 2024)
